Test results published in publication PMC4769088, “Antifungal Activity and Action Mechanism of Histatin 5-Halocidin Hybrid Peptides against Candida ssp” (PLoS ONE, 2016).
Where a SMILES comes first, the peptide text is derived from it. Bridges are numbered along the chain shown (N, C = ends). Roman numbers before positions name the chains, in order. Where no end group is shown, it is not given here.

Columns and labels:
[1] = CD spectra, secondary structure analysis; format: physicochemical; settings: solvent Laminarin (20 mg/ml in buffer), 200 μg/ml peptide
Candida albicans = format: cell-based; settings: for reduction of cell viability: 1 μg/ml peptide, in 1 hour, colony count assay
Protocol: The candidacidal activities of the peptides were tested by using standard microdilution plate assays, radial diffusion assays and broth dilution assay slightly modified from the procedure recommended by the National Committee for Clinical Laboratory Standards. For the candidacidal assays, C. albicans cells were grown in YPD medium and washed twice with 10 mM sodium phosphate buffer (NaPB; Na2HPO4, NaH2PO4, pH 7.4). The cells (1 x 10^6) were then mixed with different concentrations of peptides and incubated at 30°C with constant shaking for 60 min. For energy depletion experiments, cells were pre-incubated with 10 mM NaPB containing 5 mM NaN3 at 30°C for 60 min before the addition of peptides. The cell suspensions were diluted in 10 mM NaPB and aliquots of 500 cells were spread onto YPD agar plates then incubated for 24 h at 30°C to visualize the surviving colonies. Cell survival was expressed as a percentage of that for the control, and the loss of viability was calculated as [1 x (number of colonies from peptide-treated cells/number of colonies from control cells)] x 100. Candidacidal assays were performed in triplicate. For the radial diffusion assay, C. albicans cells were grown in YPD medium overnight and washed twice with 10 mM NaPB. Washed yeast-phase C. albicans cells (1 x 10^6 CFU) were trapped in thin underlay gels containing 9 mM sodium phosphate, 1 mM sodium citrate buffer, 1% (wt/vol) agarose (A6013; Sigma), and 0.3 mg of Sabouraud dextrose broth (Difco)/ml. After incubation at 37°C for 3 h, a 10 ml overlay gel of 1% agarose and 6% Sabouraud dextrose broth was poured on the underlay gel and then the plates were incubated overnight at 37°C. The clear-zone diameters were measured to the nearest 0.1 mm and graphed against the peptide concentration. Zone diameters were expressed in units (0.1 mm = 1 unit). For the broth dilution assay, the Candida strains were cultured in LYM broth for 18 h at 30°C. The numbers of yeasts were counted using a hemocytometer. […] The antifungal activities were evaluated after 24 h of incubation at 30°C by the observation of visible turbidity the wells. The MIC values were expressed as intervals (a–b), with a representing the highest tested concentration at which microbes continue to grow, and b representing the lowest concentration at which growth inhibition could be detected.
Fig 4 Killing kinetics of Hst5, P113, di-18Hc, hybrid peptides against Candida albicans. Killing kinetics of peptides against C. albicans was measured by colony count assay. Candida cells were treated with a different concentration of peptides at a determined time. […] Killing percent was calculated with the following equation: Killing % = (number of control cell—number of treated cell)/control cell × 100.

Compound | Secondary structure (%) Beta [1] | Secondary structure (%) Helix [1] | Secondary structure (%) Random [1] | Secondary structure (%) Turn [1] | reduction of cell viability (Candida albicans) | killing kinetics (time) (Candida albicans; membrane-attacking peptide with fast kinetics)
C[C@H](NC(=O)[C@H](Cc1c[nH]cn1)NC(=O)[C@H](CO)NC(=O)[C@@H](N)CC(=O)O)C(=O)N[C@@H](CCCCN)C(=O)N[C@@H](CCCNC(=N)N)C(=O)N[C@@H](Cc1c[nH]cn1)C(=O)N[C@@H](Cc1c[nH]cn1)C(=O)NCC(=O)N[C@@H](Cc1ccc(O)cc1)C(=O)N[C@@H](CCCCN)C(=O)N[C@@H](CCCNC(=N)N)C(=O)N[C@@H](CCCCN)C(=O)N[C@@H](Cc1ccccc1)C(=O)N[C@@H](Cc1c[nH]cn1)C(=O)N[C@@H](CCC(=O)O)C(=O)N[C@@H](CCCCN)C(=O)N[C@@H](Cc1c[nH]cn1)C(=O)N[C@@H](Cc1c[nH]cn1)C(=O)N[C@@H](CO)C(=O)N[C@@H](Cc1c[nH]cn1)C(=O)N[C@@H](CCCNC(=N)N)C(=O)NCC(=O)N[C@@H](Cc1ccc(O)cc1)C(=O)O [Hst 5, Histatin 5] | 21.7% | 0.0% | 62% | 16.3% | – | –
CC(C)C[C@H](NC(=O)CNC(=O)[C@H](Cc1c[nH]cn1)NC(=O)[C@H](Cc1c[nH]cn1)NC(=O)[C@H](CC(C)C)NC(=O)[C@H](CC(C)C)NC(=O)[C@H](C)NC(=O)[C@H](CC(N)=O)NC(=O)[C@H](CC(C)C)NC(=O)[C@@H](N)Cc1c[nH]c2ccccc12)C(=O)N[C@@H](CC(N)=O)C(=O)N[C@@H](CSSC[C@H](NC(=O)[C@H](CC(N)=O)NC(=O)[C@H](CC(C)C)NC(=O)CNC(=O)[C@H](Cc1c[nH]cn1)NC(=O)[C@H](Cc1c[nH]cn1)NC(=O)[C@H](CC(C)C)NC(=O)[C@H](CC(C)C)NC(=O)[C@H](C)NC(=O)[C@H](CC(N)=O)NC(=O)[C@H](CC(C)C)NC(=O)[C@@H](N)Cc1c[nH]c2ccccc12)C(=O)N[C@@H](C)C(=O)N[C@@H](CCCCN)C(=O)NCC(=O)N[C@H](C(=O)N[C@@H](CC(C)C)C(=O)N[C@@H](C)C(N)=O)C(C)C)C(=O)N[C@@H](C)C(=O)N[C@@H](CCCCN)C(=O)NCC(=O)N[C@H](C(=O)N[C@@H](CC(C)C)C(=O)N[C@@H](C)C(N)=O)C(C)C [di-18Hc, reference compound] (I: H-WLNALLHHGLNCAKGVLA-NH2 / II: H-WLNALLHHGLNCAKGVLA-NH2; disulfide I:12-II:12 (inferred); N-terminus assumed) | 29.7% | 29.2% | 30.3% | 10.8% | 99% | ≤ 30 s
CC(C)C[C@H](NC(=O)CNC(=O)[C@H](Cc1c[nH]cn1)NC(=O)[C@H](Cc1c[nH]cn1)NC(=O)[C@H](CCCNC(=N)N)NC(=O)[C@H](CCCCN)NC(=O)[C@H](C)N)C(=O)N[C@@H](CC(N)=O)C(=O)N[C@@H](CSSC[C@H](NC(=O)[C@H](CC(N)=O)NC(=O)[C@H](CC(C)C)NC(=O)CNC(=O)[C@H](Cc1c[nH]cn1)NC(=O)[C@H](Cc1c[nH]cn1)NC(=O)[C@H](CCCNC(=N)N)NC(=O)[C@H](CCCCN)NC(=O)[C@H](C)N)C(=O)N[C@@H](C)C(=O)N[C@@H](CCCCN)C(=O)N[C@@H](Cc1ccccc1)C(=O)N[C@@H](Cc1c[nH]cn1)C(N)=O)C(=O)N[C@@H](C)C(=O)N[C@@H](CCCCN)C(=O)N[C@@H](Cc1ccccc1)C(=O)N[C@@H](Cc1c[nH]cn1)C(N)=O [di-PH2] (I: H-AKRHHGLNCAKFH-NH2 / II: H-AKRHHGLNCAKFH-NH2; disulfide I:9-II:9 (inferred); N-terminus assumed) | 0.0% | 20.5% | 61.1% | 18.4% | 99% | –
CC(C)C[C@H](NC(=O)[C@@H](N)Cc1c[nH]c2ccccc12)C(=O)N[C@@H](CC(N)=O)C(=O)N[C@@H](C)C(=O)N[C@@H](CCCCN)C(=O)N[C@@H](CCCNC(=N)N)C(=O)N[C@@H](Cc1c[nH]cn1)C(=O)N[C@@H](Cc1c[nH]cn1)C(=O)NCC(=O)N[C@@H](Cc1ccc(O)cc1)C(=O)N[C@@H](CCCCN)C(=O)N[C@@H](CSSC[C@H](NC(=O)[C@H](CCCCN)NC(=O)[C@H](Cc1ccc(O)cc1)NC(=O)CNC(=O)[C@H](Cc1c[nH]cn1)NC(=O)[C@H](Cc1c[nH]cn1)NC(=O)[C@H](CCCNC(=N)N)NC(=O)[C@H](CCCCN)NC(=O)[C@H](C)NC(=O)[C@H](CC(N)=O)NC(=O)[C@H](CC(C)C)NC(=O)[C@@H](N)Cc1c[nH]c2ccccc12)C(=O)N[C@@H](CCCCN)C(=O)N[C@@H](Cc1ccccc1)C(=O)N[C@@H](Cc1c[nH]cn1)C(N)=O)C(=O)N[C@@H](CCCCN)C(=O)N[C@@H](Cc1ccccc1)C(=O)N[C@@H](Cc1c[nH]cn1)C(N)=O [di-WP2] (I: H-WLNAKRHHGYKCKFH-NH2 / II: H-WLNAKRHHGYKCKFH-NH2; disulfide I:12-II:12 (inferred); N-terminus assumed) | 24.5% | 0.0% | 54.7% | 20.8% | 99% | –
AKRHHGYKRKFH-NH2 [P113] | 0.2% | 2.8% | 72.2% | 24.7% | – | –
